Measurements as given in patent US20260041649A1, “ANTI-INFLAMMATORY AGENT” (WATANABE OYSTER LABORATORY, CO., LTD., priority 2023, published 2026).

Tests used:
[1] = system: mouse macrophage RAW264.7 cells; assay: Measurement of cytokine production (ELISA); type: cell-based; details: 5 hours
Procedure: RAW264.7 cells (1×10^5/ml per well in a 24-well plate) were cultured for 3 days in a DMEM culture medium without DHMBA until they reached subconfluence. After that, the cell culture was continued for another 5 hours in the control group (1% ethanol; DHMBA 0 μM as final concentration) and the DHMBA-treated group (0.1, 1, 10, 100, or 1000 μM) with or without LPS (100 ng/ml) in the cell culture medium. After the culture, the culture medium was collected, and the cytokine concentrations of TNF-α (FIG. 7A), IL-6 (FIG. 7B), […] (FIG. 7C), and PGE2 (FIG. 7D) in the culture medium were measured using an ELISA Kit. Data are presented as the mean±SD from a total of 8 wells in two plates using different cell preparations. *: Significant difference (P<0.001) versus the controls without DHMBA and LPS (white bars). #: Significant difference (P<0.001) versus the controls with LPS but without DHMBA. Statistical analysis was performed using 1-way ANOVA with Tukey-Kramer post-test.
RAW264.7 cells (1×10^5/ml per well) were cultured in a DMEM culture medium containing 10% FBS and 1% P/S using a 24-well plate for 3 days until they reached subconfluence. The cells were then cultured for another 5 hours in the control group (1% ethanol; DHMBA 0 μM as final concentration) and in the DHMBA-treated group (0.1, 1, 10, 100, or 1000 μM) with or without LPS (100 ng/ml). After the culture, the culture media were collected to measure cytokines. Then, the cells were detached from each culture dish to measure the cell number by the method described in “Cell count”. The concentrations of TNF-α, IL-6, IL-⊕, and PGE2 in the culture medium were measured using ELISA kits. For the measurement, kits for TNF-α (cat. no. BM), KHC301) and IL-16 (cat. no. BMS6002) were obtained from ThermoFisher Scientific (Waltham, MA, USA), and kits for IL-6 (cat. no. 583371) and PGE2 (cat. no. 514010) were purchased from Cayman Chemical (Ann Arbor, MI, USA). The amount of each cytokine produced was expressed as pictograms (pg) secreted into the culture medium (ml).

[2] = system: mouse macrophage RAW264.7 cells; assay: Cell number after 5 hours incubation with or without LPS; type: cell-based; details: DHMBA 0.1-1000 μM
Procedure: RAW264.7 cells (1×10^5/ml/well) were cultured in a DMEM culture medium containing 10% FBS, 1% P/S, and 1% fungizone. Cells were treated with a vehicle (1% ethanol; DHMBA 0 μM as final concentration) or DHMBA (0.1, 1, 10, 100, or 1000 μM) and incubated for 5 hours (FIG. 6A).
Cells (1×10^5/ml per well) were cultured for 3 days in a DMEM culture medium containing 10% FBS, 1% P/S, and 1% fungizone in the presence of LPS (100 ng/ml in all cultures). Cells were treated with a vehicle (1% ethanol; DHMBA 0 μM as final concentration) or DHMBA (0.1, 1, 10, 100, or 1000 μM) and incubated for 5 hours (FIG. 6B).
After the culture, the number of cells attached to the dish was counted. Data are presented as the mean±SD from a total of 8 wells of two plates using different cell preparations. […] No significant changes were observed by […] LPS treatment compared to the controls (gray bars). Statistical analysis was performed using 1-way ANOVA with Tukey-Kramer post-test.
RAW264.7 cells (1×10^5/ml per well) were cultured in a DMEM culture medium containing 10% FBS and 1% P/S using a 24-well plate for 3 days until they reached subconfluence. […] The concentrations of TNF-α, IL-6, IL-⊕, and PGE2 in the culture medium were measured using ELISA kits. […] The amount of each cytokine produced was expressed as pictograms (pg) secreted into the culture medium (ml).

[3] = LPS 100 ng/ml, DHMBA 1, 10, 100 or 1000 μM

## COc1c(O)cc(CO)cc1O [DHMBA, 3,5-dihydroxy-4-methoxybenzyl alcohol]
[1]; [3]
  LPS-increased production of IL-1β: suppressed
  LPS-increased production of IL-6: suppressed
  LPS-increased production of PGE2: suppressed
  LPS-increased production of TNF-α: suppressed
[1]; absence of LPS, DHMBA 100 or 1000 μM
  production of IL-6: suppressed
[2]; LPS 100 ng/ml
  number of RAW264.7 cells: remained unchanged
[2]; absence of LPS
  number of RAW264.7 cells: remained unchanged
